Measured values: patent US20210261636A1, “NEOANTIGENS EXPRESSED IN MULTIPLE MYELOMA AND THEIR USES” (Janssen Biotech, Inc., priority 2020, published 2021)

How the values were obtained:
[1] = test system: CD4+ T cells; experiment: Exogenous autologous healthy donor restimulation assay, TNFα and IFNγ production by CD4+ T cells; type: cell-based, human; set-up: Frequency (TNFα+ IFNγ+ CD4 T cells): unit not given here; conditions: donor independent, peptide pool 10 μg/mL, healthy donors; for Fold change (CD4+) vs. DMSO: maximum CD4+ T-cell response (TNFα and IFNγ); for Frequency (TNFα+ IFNγ+ CD4 T cells): maximum CD4+ T-cell response
Protocol: (§1) Immunogenicity responses were measured by estimating TNFα IFNγ double positive cells in the CD4+ and/or CD8+ T-cell populations. A response is considered positive if TNFα IFNγ double positive fraction was greater than or equal to three-fold over unstimulated cells (DMSO negative control) with a minimum frequency >=0.01%. […]
(§2) Overlapping 15-mer peptides were designed to span each indicated neoantigen. Their ability to activate T cells was assessed using known methods, such as the assay defnied as exogenous autologous normal donor restimulation assay. The peptides were used as pools using TNFα and IFNγ production by CD8^+ and CD4^+ T cells as a readout. Maximum frequency of CD8^+TNFα^+IFNγ^+ and CD4^+TNFα^+IFNγ^+ T cells and maximum fold change over background for each pool of peptides were analyzed, which were calculated as the highest frequency of CD8^+ TNFα^+IFNγ^+ and CD4^+ TNFα^+IFNγ^+ T cells and resulting fold change across the normal donors evaluated for the peptide.
(§3) CD1c+Dendritic Cells (CD1c+DC) isolated from human healthy PBMCs were thawed using media (IMDM (Gibco) supplemented with glutamine, HEPES, 5% human serum (Sigma), and 1× Pen-Strep). DC cells were resuspended in media supplemented with IL-4 (Peprotech, 20 ng/mL) and GM-CSF (Gibco, 20 ng/mL), plated in 6 well microplates, and rested overnight at 37° C. and 5% CO2 incubator. The following day, DC cells were counted and plated in a 96 well round bottom microplate at a concentration of 30,000 viable cells per well. Lyophilized neoantigen peptide pools (15-mer peptides with 8-mer overlapping peptide sequences) were solubilized in 100% DMSO with a stock concentration of 20 mg/mL Neoantigen peptides pools were added to DCs for a final concentration of 10 μg/mL and rested for 2 hours at 37° C. and 5% CO2 incubator. CEF Peptide Pool “Plus” (Cellular Technologies, Ltd.) was utilized as a positive control (each viral peptide at a final concentration of 4 ug/ml) and DMSO at the same final concentration (0.05%) as the experimental peptides was utilized as a negative control. After 2 hours, DC cells were irradiated with 50 gray of ionizing radiation. Autologous CD3+ Pan-T cells isolated from human normal PBMCs were thawed using media. Following irradiation, autologous Pan-T cells were added to the irradiated DCs at 300,000 viable cells per well. Human IL-15 (Peprotech) was added to all wells at final concentration of 10 ng/ml. Plates were incubated at 37° C. and 5% CO2 incubator for a total of 12 days. Media was refreshed every 2-3 days with IL-15 (R&D System, 10 ng/mL final concentration) and IL-2 (R&D systems, 10 IU/mL final concentration).
(§4) On Day 11, cells were re-stimulated with identical experimental peptide pools or controls, at same concentration as peptide stimulation on Day 1. Protein Inhibitor Cocktail (eBioscience) was added to every well and plate was incubated overnight for 14-16 hours at 37° C. and 5% CO2 incubator. On Day 12, cells were stained for surface and intracellular flow cytometry analysis. The cells were washed with PBS and stained with Live/Dead Fixable Aqua Dead Cell stain (Thermo-Fisher). Following the live/dead stain, cells were blocked using Biotin-Free Fc Receptor Blocker (Accurate Chemical & Scientific Corp). Extracellular cellular flow panel (1 μL/antibody per well in 50 μL) consisted of CD3 PerCP-Cy5.5 (Biolegend), CD4 BV421 (Biolegend), and CD8 APC-Cy7 (Biolegend). After extracellular staining, cells were fixed and permeabilized using Foxp3/Transcription Factor Staining Buffer Set (eBioscience) and stained for intracellular proteins (1:50 dilution) using TNFα FITC (R&D Systems) and IFNγ BV785 (Biolegend). Cells were washed and resuspended in stain buffer, analyzed, and recorded in a BD Celesta flow cytometer.
(§5) Flow cytometry analysis was conducted on FlowJo v10.6 software. Cells were gated on live, singlet, CD3+, CD4+ and CD8+ T cells. The CD8+ and CD4+ T cells were analyzed for TNFα and IFNγ expression. […]

[2] = test system: CD8+ T cells; experiment: Exogenous autologous healthy donor restimulation assay, TNFα and IFNγ production by CD8+ T cells; type: cell-based, human; set-up: Frequency (TNFα+ IFNγ+ CD8 T cells): unit not given here; conditions: for Fold change (CD8+) vs. DMSO: maximum CD8+ T-cell response (TNFα and IFNγ); for Fold change (CD8+) vs. DMSO / Frequency (TNFα+ IFNγ+ CD8 T cells): donor independent, peptide pool 10 μg/mL, healthy donors; for Frequency (TNFα+ IFNγ+ CD8 T cells): maximum CD8+ T-cell response; for Immunogenic (yes/no): positive if CD8+ and/or CD4+ double positive TNFα/IFNγ frequency >=3-fold over DMSO and at least 0.01%
Protocol: as §1, §2, §3, §4, §5

Sequence | Fold change (CD4+) vs. DMSO [1] | Frequency (TNFα+ IFNγ+ CD4 T cells) [1] | Fold change (CD8+) vs. DMSO [2] | Frequency (TNFα+ IFNγ+ CD8 T cells) [2] | Immunogenic (yes/no) [2]
QIIYDENRTMQIFVKT [FUS28, gene fusion NCOR2-> UBC] | 1.13 | 0.009 | 247.49 | 0.37 | Yes
LRYLIHLRKWKIK [FUS55, gene fusion FAM214A-> ARPP19] | 74.67 | 0.056 | 13.57 | 0.38 | Yes
LDPPHDEKALACPQWTLLWIFWTAKAL [AS95, alternative splicing, WDR64] | 19.58 | 0.014 | 1.58 | 0.13 | Yes
FSQNMNTKMIRGTERKQQYYGLQILE [AS134, alternative splicing, XPO1] | 1.429 | 0.02 | 4.51 | 0.091 | Yes
PPTAAASQTCLELER [FUS21, gene fusion FOSB-> KLF6] | 8.08 | 0.023 | 4.24 | 0.04 | Yes
KRYGCVFQVSIRHLSFPVTDILP [AS77, alternative splicing, TRAF3] | 7.547 | 0.046 | 369.64 | 1.12 | Yes
YECTGCKTSFPHRSQS [FUS46, gene fusion GCNA-> LOC101059915] | 9.3 | 0.017 | 143.71 | 1.33 | Yes
RHQENVHTVLVHGKVKGLFYI [AS125, alternative splicing, PRDM5] | 6.57 | 0.023 | 28.62 | 0.78 | Yes
SSLQEHRKLLS [AS52, alternative splicing, PRDM5] | 1.9 | 0.012 | 12.72 | 0.18 | Yes
MDLTAIYETMQIFVKT [FUS30, gene fusion ZFP36-> UBC] | 51.81 | 0.1 | 3.5 | 0.13 | Yes
WLLRTWERADSGL [AS123, alternative splicing, PCNX3] | 2.25 | 0.05 | 5.371 | 0.046 | No
LLPPGQESAIIGPPGMQ [FUS45, gene fusion IFNAR2-> IL10RB] | 10.56 | 0.1 | 88.8 | 0.43 | Yes
